In the NIST ThermoML archive (doi:10.1016/j.tca.2019.05.006):
Numbers after ± are expanded uncertainties.

Assay: molar heat capacity at constant pressure
Conditions: 101.33 kPa, Crystal, DSC

[Cu+2].[O-2] [copper(II) oxide]
Conditions	molar heat capacity at constant pressure [J/K/mol]
300 K	44.4 ± 22
325 K	45.8 ± 28
350 K	46.8 ± 28
375 K	47.7 ± 22
400 K	48.5 ± 26
425 K	49.2 ± 24
450 K	49.7 ± 28
475 K	50.3 ± 24
500 K	50.8 ± 26
525 K	51.2 ± 28
550 K	51.6 ± 26
575 K	51.9 ± 26
600 K	52.3 ± 22
625 K	52.6 ± 26
650 K	52.9 ± 28
675 K	53.2 ± 28
700 K	53.5 ± 24
725 K	53.8 ± 26
750 K	54 ± 28
775 K	54.3 ± 26
800 K	54.5 ± 24
825 K	54.7 ± 24
